Here are results for 46 molecules from US10851079B2, “Piperidine derivative” (OTSUKA PHARMACEUTICAL CO., LTD., priority 2016, dated 2020).

The structures appear in SMILES notation.

The subject of this experiment is Mycobacteria tuberculosis (M. tuberculosis H37Rv and M. tuberculosis Kurono). Put plainly: Antibacterial test (agar plate dilution method), minimum inhibitory concentration. In kind it is cell-based. Particulars: Mycobacterium tuberculosis, 7H11 agar medium, about 10^6 CFU/mL inoculum, incubation at 37° C., strains H37Rv and Kurono, read-out: minimum inhibitory concentration against Mycobacteria tuberculosis.

As to `Cn1c(=O)c(=O)[nH]c2c(OC[C@]3(O)CCN(c4c(F)cc(Cl)cc4F)C[C@H]3O)ccc(F)c21` [Example 146], the MIC is not above 3.13 mg/L.

Turning to `O=C1CCc2c(OC[C@]3(O)CCN(c4ccc(Br)cc4F)C[C@H]3O)ccnc2N1` [Example 71], the MIC was not above 3.13 mg/L.

Take `O=c1cnc2cccc(OC[C@]3(O)CCN(c4ccc(Cl)cc4F)C[C@H]3O)c2[nH]1` [Example 51]: the MIC is not above 3.13 mg/L.

For the molecule `CN1Cc2c(cccc2OC[C@]2(O)CCN(c3c(F)cc(Cl)cc3F)C[C@H]2O)NC1=O` [Example 41], the MIC was not above 3.13 mg/L.

For `Cc1noc2cccc(OC[C@]3(O)CCN(c4c(F)cc(Cl)cc4F)C[C@H]3O)c12` [Example 32], the MIC was not above 3.13 mg/L.

As to `O=C1Cc2c(OC[C@]3(O)CCN(c4c(F)cc(Cl)cc4F)C[C@H]3O)ccc(Cl)c2N1` [Example 95], the MIC was not above 3.13 mg/L.

On to `O=c1[nH]c2c(Cl)ccc(OC[C@]3(O)CCN(c4c(F)cc(Cl)cc4F)C[C@H]3O)c2s1` [Example 122], for which the MIC is not above 3.13 mg/L.

As for `Cl.O[C@@H]1CN(c2c(F)cc(Cl)cc2F)CC[C@@]1(O)COc1ccc(F)c2c1CCCN2` [Example 44, (3R,4R)-1-(4-chloro-2,6-difluorophenyl)-4-[(8-fluoro-1,2,3,4-tetrahydroquinolin-5-yl)oxymethyl]piperidine-3,4-diol hydrochloride], the MIC was not above 3.13 mg/L.

`O=C1Nc2cccc(OC[C@]3(O)CCN(c4ccc(Cl)cc4F)C[C@H]3O)c2CS1` [Example 68]: the MIC was not above 3.13 mg/L.

As to `CNC(=O)c1cc(Cl)ccc1OC[C@]1(O)CCN(c2c(F)cc(Cl)cc2F)C[C@H]1O` [Example 101], the MIC was not above 3.13 mg/L.

`CC(C)(C)N1Cc2c(OC[C@]3(O)CCN(c4c(F)cc(Cl)cc4F)C[C@H]3O)cccc2C1=O` [Example 9]: the MIC was not above 3.13 mg/L.

With `O=C1COc2c(OC[C@]3(O)CCN(c4c(F)cc(Cl)cc4F)C[C@H]3O)ccc(Cl)c2N1` [Example 111], the MIC was not above 3.13 mg/L.

With `O[C@@H]1CN(c2c(F)cc(Cl)cc2F)CC[C@@]1(O)COc1ccc(Cl)c2cccnc12` [Example 6, (3R,4R)-1-(4-chloro-2,6-difluorophenyl)-4-[(5-chloroquinolin-8-yl)oxymethyl]piperidine-3,4-diol], the MIC is not above 3.13 mg/L.

On to `O=c1[nH]c2c(F)ccc(OC[C@]3(O)CCN(c4ccc(Br)cc4F)C[C@H]3O)c2s1` [Example 140], for which the MIC was not above 3.13 mg/L.

In the case of `O[C@@H]1CN(c2ccc(Cl)cc2F)CC[C@@]1(O)COc1ccc(Cl)c2[nH]ncc12` [Example 47], the MIC is not above 3.13 mg/L.

As to `NC(=O)Cc1cc(F)ccc1OC[C@]1(O)CCN(c2c(F)cc(Cl)cc2F)C[C@H]1O` [Example 117, 2-[5-fluoro-2-[[(3R,4R)-1-(4-chloro-2,6-difluorophenyl)-3,4-dihydroxypiperidin-4-yl]methoxy]phenyl]acetamide], the MIC is not above 3.13 mg/L.

For `O=C1Cc2c(OC[C@]3(O)CCN(c4ccc(Br)cc4F)C[C@H]3O)ccc(Cl)c2N1` [Example 120], the MIC was not above 3.13 mg/L.

Regarding `O=C1Nc2cccc(OC[C@]3(O)CCN(c4c(F)cc(Cl)cc4F)C[C@H]3O)c2CO1` [Example 141], the MIC was not above 3.13 mg/L.

Take `OC1CCc2c(OC[C@]3(O)CCN(c4c(F)cc(Cl)cc4F)C[C@H]3O)cccc21` (stereo partly drawn) [Example 24, (3R,4R)-1-(4-chloro-2,6-difluorophenyl)-4-[(1-hydroxy-2,3-dihydro-1H-inden-4-yl)oxymethyl]piperidine-3,4-diol]: the MIC is not above 3.13 mg/L.

Turning to `O[C@@H]1CN(c2c(F)cc(Cl)cc2F)CC[C@@]1(O)COc1cccc2[nH]ncc12` [Example 28], the MIC is not above 3.13 mg/L.

For `Nc1nc2c(Cl)ccc(OC[C@]3(O)CCN(c4c(F)cc(Cl)cc4F)C[C@H]3O)c2s1` [Example 127, (3R,4R)-4-[(2-amino-4-chloro-1,3-benzothiazol-7-yl)oxymethyl]-1-(4-chloro-2,6-difluorophenyl)piperidine-3,4-diol], the MIC was not above 3.13 mg/L.

`O=C1COc2c(OCC3(O)CCN(c4c(F)cc(Cl)cc4F)CC3)ccc(Cl)c2N1` [Example 80]: the MIC was not above 3.13 mg/L.

For `O[C@@H]1CN(c2c(F)cc(Cl)cc2F)CC[C@@]1(O)COc1ccc(Br)c2ccoc12` [Example 23], the MIC is not above 3.13 mg/L.

Take `Cn1c(=O)cnc2c(OC[C@]3(O)CCN(c4c(F)cc(Cl)cc4F)C[C@H]3O)cccc21` [Example 53, 1-methyl-5-[[(3R,4R)-1-(4-chloro-2,6-difluorophenyl)-3,4-dihydroxypiperidin-4-yl]methoxy]quinoxalin-2-one]: the MIC was not above 3.13 mg/L.

As for `CC(=O)Nc1cc(F)ccc1OC[C@]1(O)CCN(c2c(F)cc(Cl)cc2F)C[C@H]1O` [Example 62], the MIC was not above 3.13 mg/L.

For `O[C@@H]1CN(c2c(F)cc(Cl)cc2F)CC[C@@]1(O)COc1cccc2[nH]cnc12` [Example 34], the MIC was not above 3.13 mg/L.

In the case of `O=c1[nH]c2c(F)ccc(OCC3(O)CCN(c4c(F)cc(Cl)cc4F)CC3)c2s1` [Example 147, 7-[[1-(4-chloro-2,6-difluorophenyl)-4-hydroxypiperidin-4-yl]methoxy]-4-fluoro-3H-1,3-benzothiazol-2-one], the MIC is not above 3.13 mg/L.

Turning to `O=c1cnc2c(OC[C@]3(O)CCN(c4ccc(Br)cc4F)C[C@H]3O)cccc2[nH]1` [Example 50], the MIC was not above 3.13 mg/L.

Take `O=C1Cc2c(OCC3(O)CCN(c4c(F)cc(Cl)cc4F)CC3)ccc(F)c2N1` [Example 145, 4-[[1-(4-chloro-2,6-difluorophenyl)-4-hydroxypiperidin-4-yl]methoxy]-7-fluoro-1,3-dihydroindol-2-one]: the MIC was not above 3.13 mg/L.

As for `O[C@@H]1CN(c2c(F)cc(Cl)cc2F)CC[C@@]1(O)COc1ccc(Cl)c2[nH]c(=S)ccc12` [Example 108], the MIC was not above 3.13 mg/L.

Take `Cn1c(=O)[nH]c2cccc(OC[C@]3(O)CCN(c4c(F)cc(Cl)cc4F)C[C@H]3O)c21` [Example 11]: the MIC was not above 3.13 mg/L.

On to `COC(=O)c1cc(Cl)ccc1OC[C@]1(O)CCN(c2c(F)cc(Cl)cc2F)C[C@H]1O` [Example 92], for which the MIC was not above 3.13 mg/L.

With `O=C1CSCc2c(cccc2OC[C@]2(O)CCN(c3c(F)cc(Cl)cc3F)C[C@H]2O)N1` [Example 66], the MIC was not above 3.13 mg/L.

For the molecule `O=C1CCc2c(OC[C@]3(O)CCN(c4c(F)cc(Cl)cc4F)C[C@H]3O)cccc21` [Example 17], the MIC is not above 3.13 mg/L.

Take `O=C1CSc2c(cccc2OC[C@]2(O)CCN(c3ccc(Cl)cc3F)C[C@H]2O)N1` [Example 76]: the MIC is not above 3.13 mg/L.

As to `O[C@@H]1CN(c2c(F)cc(Cl)cc2F)CC[C@@]1(O)COc1ccc(F)c2nc(Cl)sc12` [Example 135], the MIC was not above 3.13 mg/L.

Turning to `O=C1Nc2c(Cl)ccc(OC[C@]3(O)CCN(c4ccc(Cl)cc4F)C[C@H]3O)c2CO1` [Example 133], the MIC was not above 3.13 mg/L.

As to `O=C1CCCc2c(OCC3(O)CCN(c4c(F)cc(Cl)cc4F)CC3)ccc(Cl)c2N1` [Example 79], the MIC was not above 3.13 mg/L.

For the molecule `O=C1CCc2c(OC[C@]3(O)CCN(c4c(F)cc(Cl)cc4F)C[C@H]3O)ccc(Cl)c21` [Example 90, 7-chloro-4-[[(3R,4R)-1-(4-chloro-2,6-difluorophenyl)-3,4-dihydroxypiperidin-4-yl]methoxy]-2,3-dihydroinden-1-one], the MIC is not above 3.13 mg/L.

As for `OCc1cc(Cl)ccc1OC[C@]1(O)CCN(c2c(F)cc(Cl)cc2F)C[C@H]1O` [Example 98, (3R,4R)-1-(4-chloro-2,6-difluorophenyl)-4-[[4-chloro-2-(hydroxymethyl)phenoxy]methyl]piperidine-3,4-diol], the MIC is not above 3.13 mg/L.

Turning to `O[C@@H]1CN(c2c(F)cc(Cl)cc2F)CC[C@@]1(O)COc1ccc(Cl)c2[nH]ccc12` [Example 113], the MIC is not above 3.13 mg/L.

Regarding `OC1(COc2cccc3cnccc23)CCN(c2ccc(Cl)cc2F)CC1` [Example 1, 1-(4-chloro-2-fluorophenyl)-4-(isoquinolin-5-yloxymethyl)piperidin-4-ol], the MIC was not above 3.13 mg/L.

For the molecule `O=C1COCc2c(cccc2OC[C@]2(O)CCN(c3c(F)cc(Cl)cc3F)C[C@H]2O)N1` [Example 65], the MIC was not above 3.13 mg/L.

Turning to `O=C1NCc2c(OC[C@]3(O)CCN(c4ccc(Br)cc4F)C[C@H]3O)ccc(F)c2N1` [Example 131], the MIC was not above 3.13 mg/L.

On to `Cc1c(OC[C@]2(O)CCN(c3c(F)cc(Cl)cc3F)C[C@H]2O)ccc(Cl)c1NC=O` [Example 105], for which the MIC is not above 3.13 mg/L.

In the case of `O=C1CCCc2c(OC[C@]3(O)CCN(c4c(F)cc(Cl)cc4F)C[C@H]3O)ccc(Cl)c2N1` [Example 84], the MIC was not above 3.13 mg/L.
